According to patent US10962508B2, “Ultrasound-based method and related system to evaluate hemostatic function of whole blood” (University of Virginia Patent Foundation, priority 2009, dated 2021):
Entries after “also recorded” stand apart in the source; their conditions may differ.

Assays:
Type in all cases: cell-based, human
[1] = tested on: fibrin polymerization in whole blood; experiment: Sonorheometry of whole blood: coagulation plasma factors and fibrin polymerization (GPRP titration); conditions: kaolin-activated citrated whole blood, 5 volunteers; GPRP 0, 1, 2, 4, 8 mM
Description: (§1) Blood samples were obtained from a peripheral vein of the arm of a patient into six 1.8 ml Vacutainers™ (Becton Dickinson, Franklin Lakes, N.J.) containing 3.2% (0.105M) sodium citrate to prevent coagulation within the tubes. The first tube was discarded, while the remaining tubes were placed on a rocker table and analyzed sequentially starting thirty minutes after the draw. For all the experiments described here, samples were obtained from a total of eight volunteers (four male and four female) with age range of twenty-three to thirty years (mean and standard deviation of 25.75±3.3 years) and with no history of thrombotic or hemorrhagic disorders. Ultrasound pulses having 10 Mhz center frequency were applied, PRF was adaptively adjusted with the range of about 25 Hz to about 12.8 kHz. Automated measurements having a one second acquisition time were performed every six seconds.
(§2) In a typical experiment, 1 ml of citrated blood was pipetted into a 4 ml clear polystyrene cuvette 142 along with 0.5 mg of kaolin activator to start coagulation through activation of the intrinsic pathway and 62 μl of 0.2M CaCl2 to reverse the anticoagulant effect of the sodium citrate. Other reagents were also added as required by the specific study performed. Phosphate Buffer Saline (PBS) solution was added to maintain identical blood dilution. Sonorheometry data acquisition was initiated one minute after all the reagents were pipetted into the sample, and measurements were performed every six seconds.
Gly-Pro-Arg-Pro (GPRP) was obtained from Calbiochem (EMD Chemicals Inc., Gibbstown, N.J.) with 99.1% purity as determined by HPLC. GPRP was dissolved in PBS into 100 mM stock. Kaolin was obtained in powder form (Sigma Aldrich, St. Louis, Mo.) and suspended in sterile sodium chloride solution (Becton Dickinson, Franklin Lakes, N.J.). Monoclonal antibody abciximab (ReoPro®, Eli Lilly and Company, Indianapolis, Ind.) was obtained in a concentration of 2 mg/ml. The original solution was diluted by a factor of five by adding 200 μL of PBS into 50 μl of the original ReoPro solution. The serine protease abbokinase (urokinase-type Plasminogen Activator, or uPA, Hyphen Biomed, Neuville-sur-Oise, France) was obtained in a concentration of 1 unit/μl.
(§3) The raw ultrasound data were transferred from the custom PCB 110 to the laptop computer 150 through USB interface 112 and analyzed in MATLAB (MathWorks Inc., Natick, Mass.). […]
(§4) The sonorheometry parameters were calculated by fitting values 20 T to a sigmoidal curve 602 and evaluating the first derivative 30 of the curve 602, as shown in FIG. 8. For example, the clotting times TC1 and TC2 were calculated based on a threshold value of the derivative curve (20% of the minimum value), whereas the clotting slope CFR is the minimum of the derivative curve. […]

[2] = tested on: platelet aggregation in whole blood; experiment: Sonorheometry of whole blood: assessment of platelet function (abciximab titration)
Description: as §1
as §2, with “Sonorheometry data acquisition was initiated one minute after all the reagents were pipetted into the sample, and measurements were performed every six seconds.” left out
(§5) Gly-Pro-Arg-Pro (GPRP) was obtained from Calbiochem (EMD Chemicals Inc., Gibbstown, N.J.) with 99.1% purity as determined by HPLC. […]
as §3, §4

[3] = tested on: fibrinolysis of whole blood clot; experiment: Sonorheometry of whole blood: assessment of fibrinolytic proteins (urokinase titration); conditions: urokinase 0, 100, 150, 200 Units per ml of blood
Description: as §1
as §2, with “Sonorheometry data acquisition was initiated one minute after all the reagents were pipetted into the sample, and measurements were performed every six seconds.” left out
as §5, §3, §4

[4] = kaolin-activated citrated whole blood

Gly-Pro-Arg-Pro [GPRP]
clot formation rate CFR (rate of fibrin polymerization) [1]: decreased
final clotting time TC2 [1]: increase with the concentration of GPRP
initial clotting time TC1 [1]: increase with the concentration of GPRP
stiffness S (final stiffness of the formed clot) [1]: decreased

abciximab: monoclonal antibody; inhibitor of platelet aggregation blocking the IIb/IIIa receptor
other parameters describing the dynamics of clot formation and dissolution ([2]; abciximab 0, 2, 4, 6, 8, 12 μg/ml): did not change significantly
variation of final clot stiffness across the concentrations used ([2]; abciximab 0 to 12 μg/ml): varied by over one order of magnitude
stiffness SMAX ([2]; kaolin-activated citrated whole blood, five individuals, abciximab 0, 2, 4, 6, 8, 12 μg/ml): reduces the stiffness SMAX yielding a softer clot

urokinase
clot lysis time TL1 [3, 4]: decreased as a function of urokinase concentration
clot lysis time TL2 [3, 4]: decreased as a function of urokinase concentration
return of blood sample to a viscous fluid (clot dissolution) [3]: returned to a viscous fluid significantly faster with increasing concentrations of urokinase; also recorded: rapidly dissolved the blood clot and restored the original mechanical conditions prior to clot formation
